The test system of test [1] is Olfr920, Olfr1417, and Olfr99. The conditions noted are these: Hana3A cells; MOCK also responded.
Experimental: Next, Hana3A cells were transfected with RTP1S, and their location and presence on the cell membrane were confirmed as previously described (Behrens et al., 2009; Zhuang and Matsunami, 2008). Such transfection was performed using Lipofectamine 2000 (#11668-019; Thermo Fisher Scientific) according to the manufacturer's instructions. More specifically, the transfected cells were grown on a coverslip (#0101050; Marienfeld) coated with poly D lysine (10 μg/ml; #P7280; Sigma Aldrich). Next, the cells were washed with a warm PBS solution and cooled with ice for 30 minutes to block endocytosis. […] The cells were then incubated with normal horse serum (#008-000-121; Jackson ImmunoResearch) at room temperature for 1 hour. The resulting cells were incubated with mouse anti rhodopsin (anti-Rho; 1:1,000; #MABN15; Millipore) or rabbit anti Olfr110 (#ab177327; Abcam) at 4° C. overnight. […] The expression of heterologous odorant receptors was analyzed with a confocal laser scanning microscope LSM700 and ZEN software (Zeiss). […] Each plate was analyzed using Lipofectamine 2000 (#11668-019; Thermo Fisher Scientific) according to the manufacturer's protocol. […] The amount of light emitted was measured using a SpectraMax L microplate reader (Molecular Devices).
For another test, the target named is T1, Olfr110 (Mus musculus, UniProt A2RT31).
T1 construct: Full-length odorant receptor genes from mouse and human genomic DNA were amplified using appropriate primers; Lucy (N); Flag (N); Rho (N); expressed in transfected cells; host or cells: Hana3A cells, co-transfected with RTP1S, pCRELuc and pRL-SV40
T1 sequence (A2RT31 1-317): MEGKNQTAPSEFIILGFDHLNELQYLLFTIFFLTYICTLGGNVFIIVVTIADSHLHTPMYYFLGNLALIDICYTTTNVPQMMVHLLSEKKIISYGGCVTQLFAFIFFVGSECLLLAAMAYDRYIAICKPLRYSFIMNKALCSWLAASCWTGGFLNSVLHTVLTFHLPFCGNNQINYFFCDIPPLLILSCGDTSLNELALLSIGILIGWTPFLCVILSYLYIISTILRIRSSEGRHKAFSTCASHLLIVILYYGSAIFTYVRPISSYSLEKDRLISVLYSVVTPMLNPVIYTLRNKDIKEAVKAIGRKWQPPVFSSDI
In words: Luciferase assay in Hana3A cells, Olfr110. In kind it is cell-based. The conditions noted are these: for reactivity of Olfr110 (relative luciferase activity): Hana3A cells.

The test system of another test is Olfr111. In words: Luciferase assay in Hana3A cells, Olfr111. The format is cell-based, mouse. The conditions noted are these: for reactivity of Olfr111 (relative luciferase activity): Hana3A cells.
Test [2] deals with primary microglia. As to the kind of experiment: Western blot of phosphorylated signalling proteins in primary microglia. The format is cell-based, mouse. As to conditions: inhibitor pre-culture, then 2-PF. How it is done:
Cells and tissues were prepared using the T-PER® reagent (#78510; Thermo Fisher Scientific) with protease inhibitors (#04-693-116-001; Roche Molecular Diagnostics), DMSF (Sigma-Aldrich) and lysed using the MagNA Lyser (Roche Molecular Diagnostics). A total protein extract was quantified by the Bradford assay. The sample was dissolved in 7.5% SDS-PAGE or 4 to 20% gradient mini-PROTEIN TGX Precast Gels (#456-1064; Bio-Rad Laboratories), and then blotted onto nitrocellulose membranes (#10600002; GE Healthcare). The membrane was then blocked in 5% skimmed milk powder, TBST, 0.1% TWEEN® 20 (#P9416; Sigma-Aldrich) and Tris-buffered saline for 1 hour, and then incubated with primary antibodies at 4° C. overnight. The antibodies are as follows: Olfr110 (36 kDa; 1:1,000; #ab177327; Abcam), anti rhodopsin (39 kDa; 1:1,000; #MABN15; Millipore), CREB (43 kDa; 1:1,000; #9197; Cell Signaling Technology), phospho-CREB (43 kDa; 1:1,000; #9198; Cell Signaling Technology), ERK (44 kDa; 1:1,000; #sc094; Santa Cruz), phospho-ERK (42, 44 kDa; 1:1,000; #sc-7383; Santa Cruz), phospho-Akt (60 kDa; 1:500; sc-293125; Santa Cruz), phospho-JNK (46, 54 kDa; 1:500; sc-6254; Santa Cruz), phosphor-p38 (38 kDa; 1:1,000; sc-7973; Santa Cruz), or beta-Actin (45 kDa; 1:10,000; #4967; Cell Signaling Technology). Furthermore, an isotype-matched horseradish peroxidase-conjugated secondary antibody was used at 1:100,000 with anti-rabbit in TBST (#711-035-152; Jackson ImmunoResearch) and 1:40,000 with anti-mouse (#715-035-150; Jackson ImmunoResearch) at room temperature for 2 hours. As an immunoreactive protein band, SuperSignal™ West Pico Chemiluminescent Substrate (#34080; Thermo Fisher Scientific) was used.
A general note: In western blotting, separated proteins are transferred to a membrane and probed.

The subject of test [3] is primary microglia. In words: Cytokine mRNA (qRT-PCR) and protein (ELISA) in microglia. In kind it is cell-based, mouse. The conditions noted are these: then 2-PF. How it is done: In the present example, microglia or astrocytes were primarily extracted from the cerebral cortex of E18.5 mouse embryos (Tamashiro et al., 2012) and then cultured as in Example 1. More specifically, the cortex of mouse embryos was collected and then stored in a cold supernatant (#14170-112; Thermo Fisher Scientific) and pretreated at 37° C. in a 0.25% trypsin solution (#15090-046; Thermo Fisher Scientific) for 20 minutes. Then, cells were plated in a minimal nutrient medium supplemented with 10% FBS (#SH30919.03; Hyclone), 2 mM L-glutamine (#25030-081; Thermo Fisher Scientific), 0.04% glucose (#G7021; Sigma Aldrich), and 1% penicillin/streptomycin (#15140-122; Thermo Fisher Scientific), and then filtered using a 40 μm strainer (#352340; Thermo Fisher Scientific). Microglia were plated at a density of 1.2×10^7 cells in a T75 flask coated with poly-D-lysine (#P7280; Sigma Aldrich). After 2 hours, the mixture was transferred to a Dulbecco's modified eagle medium (DMEM; #SH30243.01; Hyclone), and the medium was replaced every 3 days for 2 weeks. In order to separate the microglia from this mixed solution, first, the mixed solution was shaken at 37° C. at 150 rpm for 2 hours, then the mixed solution containing microglia was separately extracted from the top and transferred, and then the microglia were isolated by centrifugation at 1300 rpm at room temperature for 5 minutes. The isolated microglia were transferred to a culture medium. After the microglia were transferred, the microglia were completely removed by shaking the remaining mixed solution at 160 rpm for 1 day for culturing. Then, astrocytes were isolated by treatment with 0.25% trypsin and again cultured in a T75 flask for 4 days for collection. The purity of the collected microglia and astrocytes was evaluated by qRT-PCR analysis and by immunocytochemistry using Iba-1 and Gfap, which are a marker gene and a protein, respectively.
For the measurement of mRNA, RNA was isolated from red blood cells, microglia, astrocytes, Hana3A cells, or cerebral cortical cells using the MagNa Lyser (Roche Molecular Diagnostics) using TRIzol reagent (Invitrogen, Carlsbad, CA.) according to the manufacturer's protocol. Then, cDNA was generated through reverse transcription using the isolated mRNA (using PrimeScript™ 1st str and cDNA Synthesis kit—#6110; Takara Bio Inc). This process was quantitatively measured in real time through quantitative real-time-PCR (using LightCycler® 480 SYBR Green I Master). The measured values were calculated using the 2-ΔΔCt method.
The expression levels of Tnf, il6, and Il1b cytokines secreted from microglia were measured according to the manufacturer's protocol. More specifically, the expression levels were measured by ELISA 24 hours after treatment with 2-PF or a cell supernatant. […]
Background: Quantitative PCR measures a nucleic acid by following its amplification.

Test [4] has as its system primary microglia. As to the kind of experiment: Active oxygen (ROS) production in primary microglia. In kind it is cell-based, mouse. As to conditions: for ROS (active oxygen) generation induced by 2-PF after inhibitor pretreatment: then 2-PF. How it is done: Superoxide concentrations were calculated by measuring the degree of decrease in cytochrome c using a VersaMax microplate reader (Babior et al., 1973). Microglia were cultured on a 96-well plate at a concentration of 1.0×10^5 cells/well, and the microglia were activated by a 10 μM ATP solution containing 2-pentylfuran and cytochrome c, or a solution of Sup mixed with cytochalasin B (5 μM; #C66762; Sigma Aldrich). The resulting ROS concentration was measured by changes in light absorption at 550 nm at intervals of 1 minute for 25 minutes.
Active oxygen levels were measured using 2′,7′-dichlorodihydrofluorescein diacetate (DCF-DA, #D6883; Sigma Aldrich) using a method that had undergone minor modifications from the existing method. (Bae et al., 2001). More specifically, the primary microglia were treated with 10 μM DCF-DA in a 24-well plate (5.0×10^5 cells/well) […] at a temperature of 37° C. for 30 minutes. One plate was treated with 2-PF and one was not. Cells in each well were measured by a flow cytometer (FACS Accuri™ C6; BD Biosciences). MFI was measured in the same manner as described above.

Experimental for Olfr110: (§1) Next, Hana3A cells were transfected with RTP1S, and their location and presence on the cell membrane were confirmed as previously described (Behrens et al., 2009; Zhuang and Matsunami, 2008). Such transfection was performed using Lipofectamine 2000 (#11668-019; Thermo Fisher Scientific) according to the manufacturer's instructions. More specifically, the transfected cells were grown on a coverslip (#0101050; Marienfeld) coated with poly D lysine (10 μg/ml; #P7280; Sigma Aldrich). Next, the cells were washed with a warm PBS solution and cooled with ice for 30 minutes to block endocytosis. […] The cells were then incubated with normal horse serum (#008-000-121; Jackson ImmunoResearch) at room temperature for 1 hour. […] After being washed with PBS, the cells were treated with a Cy3-conjugated donkey anti-mouse antibody (1:1,000; #715-165-150; Jackson ImmunoResearch), an Alexa488-conjugated donkey anti-mouse antibody (1:1,000; #715-545-150; Jackson ImmunoResearch), or a Cy3-conjugated donkey anti-rabbit antibody (1:1,000; #711-165-152; Jackson ImmunoResearch) at room temperature for 1 hour. The cells were mounted with a Vectashield fluorescent mounting medium containing DAPI (#H-1200; Vector Laboratories). The expression of heterologous odorant receptors was analyzed with a confocal laser scanning microscope LSM700 and ZEN software (Zeiss).
(§2) The Dual-Glo luciferase assay system (#E2940; Promega) was used for odorant receptor ligand screening. More specifically, Hana3A cells were streaked and spread on a white polystyrene 96-well plate (#353296; BD Biosciences) one day before transfection. pCRELuc (1 μg; #219076; Agilent Technologies), pRL-SV40 (1 μg; #E2231; Promega), RTP1S (1 μg), and OR (6 μg; or Mock) vectors were transfected for 24 hours in each plate. Each plate was analyzed using Lipofectamine 2000 (#11668-019; Thermo Fisher Scientific) according to the manufacturer's protocol. Transfected cells were stimulated in CD293 medium (#11913-019; Thermo Fisher Scientific) at 37° C. for 4 hours using diluted odorants at various concentrations. The activity of luciferase was normalized by the activity of Renilla luciferase. The amount of light emitted was measured using a SpectraMax L microplate reader (Molecular Devices).
Experimental for Olfr111: as §1, §2

As to `CCO` [ethanol], in test [1], the “reactivity of the remaining three receptors (luciferase)” value is “non-specific reaction”.
For `Cc1ccco1` [2-methylfuran], the “binding to Olfr110” value at Olfr110 is given as “do not bind”. The “binding to Olfr111” value in the test on Olfr111 is “do not bind”.
In the case of `Cc1ccoc1C` [2,3-dimethylfuran], at Olfr110, the “binding to Olfr110” value was “do not bind”. Moreover, in the test on Olfr111, the “binding to Olfr111” value is listed as “do not bind”.
Turning to `CCCCc1ccco1` [2-butylfuran], on Olfr110, the “reactivity of Olfr110 (relative luciferase activity)” value is on record as “showed reactivity”. In addition, the “reactivity of Olfr111 (relative luciferase activity)” value in the test on Olfr111 was “showed reactivity”.
Consider `CCCCCCc1ccco1` [2-hexylfuran], for which, on Olfr110, the “binding to Olfr110” value is reported as “do not bind” and the “reactivity of Olfr110 (relative luciferase activity)” value is “showed reactivity”. Further, in the test on Olfr111, the “binding to Olfr111” value is recorded as “do not bind” and the “reactivity of Olfr111 (relative luciferase activity)” value is reported as “showed reactivity”.
With `CC(C)(C)c1ccco1` [2-t-butylfuran], the “reactivity of Olfr110 (relative luciferase activity)” value at Olfr110 was “showed reactivity”. Moreover, in the test on Olfr111, the “reactivity of Olfr111 (relative luciferase activity)” value is “showed reactivity”.
`Nc1ncnc2c1ncn2C1CCCO1` (stereo not drawn) [SQ22536]: in the test on primary microglia [2], the “CREB and ERK phosphorylation after inhibitor pre-culture and 2-PF” value is listed as “greatly decreased”. Moreover, the “Tnf and Il6 cytokine levels induced by 2-PF after inhibitor pretreatment” value in the test on primary microglia [3] was “great decrease”.
`COc1ccc2c(c1)CC[C@@H]1[C@@H]2CC[C@]2(C)[C@@H](NCCCCCCN3C(=O)C=CC3=O)CC[C@@H]12` [U73122]: the “ROS (active oxygen) generation induced by 2-PF after inhibitor pretreatment” value with primary microglia [4] is listed as “completely inhibited”. Further, the “Tnf and Il6 cytokine levels induced by 2-PF after inhibitor pretreatment” value with primary microglia [3] is “relatively less decrease”.
Regarding `COc1cccc(-c2cc(=O)c3ccccc3o2)c1N` [pd98059], the “CREB and ERK phosphorylation after inhibitor pre-culture and 2-PF” value in the test with primary microglia [2] is “greatly decreased”. For the same molecule, the “Tnf and Il6 cytokine levels induced by 2-PF after inhibitor pretreatment” value with primary microglia [3] was “relatively less decrease”.
For `CCCc1ccco1` [2-propylfuran], at Olfr110, the “reactivity of Olfr110 (relative luciferase activity)” value is recorded as “showed reactivity”. Further, the “reactivity of Olfr111 (relative luciferase activity)” value with Olfr111 is on record as “showed reactivity”.
As for `CCc1ccco1` [2-EF, 2-ethylfuran], on Olfr110, the “binding to Olfr110” value was “do not bind” and the “mode of action at Olfr110” value is “competitive inhibitor (antagonist)”. In addition, the “active oxygen produced by Sup MOI of 100” value in the test on primary microglia [4] (2-EF pretreated at 0, 100, 300, 500 μM) is listed as “decreased as the concentration of 2-EF increased”. Moreover, the “active oxygen produced by Sup MOI 5 plus 500 μM 2-PF” value in the test with primary microglia [4] (2-ethylfuran 0, 100, 300, 500 μM simultaneously) is “the higher the concentration of 2-EF added, the lower the concentration of active oxygen produced”. For the same molecule, the “binding to Olfr111” value in the test with Olfr111 is “do not bind”.
`O=S(=O)(NCCNC/C=C/c1ccc(Br)cc1)c1cccc2cnccc12` [H-89]: the “Tnf and Il6 cytokine levels induced by 2-PF after inhibitor pretreatment” value in the test on primary microglia [3] was “great decrease”.
As for `CCCCCCCc1ccco1` [2-heptylfuran], on Olfr110, the “binding to Olfr110” value is “do not bind”. Further, the “binding to Olfr111” value in the test on Olfr111 is “do not bind”.
For `O=C1OC2(c3ccccc31)c1ccc(O)c(O)c1Oc1c2ccc(O)c1O` [gallein], the “ROS (active oxygen) generation induced by 2-PF after inhibitor pretreatment” value with primary microglia [4] was “similarly inhibited”.

These data come from US12396977B2, “Composition for treating degenerative brain diseases, containing 2-pentylfuran as active ingredient” (DAEGU GYEONGBUK INSTITUTE OF SCIENCE AND TECHNOLOGY, priority 2019, dated 2025).
